{"source": "patent EP0167935A2", "about": "“Anthracycline derivatives, a process for the production thereof, a pharmaceutical composition containing the same and their use as medicaments” (priority 1984, dated 1986)", "key": {"[1]": {"test_system": "leukemic cells P 388", "assay": "Inhibition of the growth of cultured leukemic cells P 388 (two-day culture)", "assay_type": "cell-based", "conditions": "Mus musculus, P388, 48 h", "description": "(1) Activity of inhibiting the growth of cultures leukemic cells P 3FB8"}, "[2]": {"test_system": "Leukemia L 1210", "assay": "Anti-tumor effect for mice bearing Leukemia L 1210 (survival)", "assay_type": "in vivo, CDF1 mice", "conditions": "injected peritoneally for 10 days; for Percent survival (%): L 1210 1 x 10^5 cells/mouse i.p., 30 days observation, saline control = 100; for Toxicity remark in the percent survival cell: CDF1 mice bearing L 1210", "method": "(2) Anti-tumor effect for mice bearing Leukemia L 1210\nA group of CDF1 mice were intraperitoneally transplanted with suspensions of leukemic cells L 1210 (1 x 10^5 cells/mouse). Immediately after the transplantation, a.25 mℓ each of the test compounds was injected peritoneally into the mice for 10 days. Observation was made for 30 days, and the percent survival for each test compound was determined, with 100 representing the number of days which the control mice group administered physiological saline survived."}, "[3]": {"conditions": "concentration giving 50% inhibition of growth of a two-day culture of P 388 cells vs untreated group, read-out: IC50"}}, "note": "Read-outs that look alike come from different tables or passages of the source.", "data": [{"smiles": "CCC1(O)CC(OC2CC(N(C)C)C(OC3CC4OC5CC(=O)C(C)OC5OC4C(C)O3)C(C)O2)c2c(O)c3c(c(O)c2C1OC1CC(N(C)C)C(O)C(C)O1)C(=O)c1cccc(O)c1C3=O", "note": "(centres unmarked) [DTR-B/10de-dF-CB]", "values": [{"measurement": "IC50", "setting": "[1]; [3]", "result": 9, "unit": "ng/mL"}]}, {"smiles": "CCC1(O)CC(OC2CC(N(C)C)C(OC3CC(O)C(OC4CCC(O)C(C)O4)C(C)O3)C(C)O2)c2c(O)c3c(c(O)c2C1OC1CC(N(C)C)C(OC2CC4OC5CC(=O)C(C)OC5OC4C(C)O2)C(C)O1)C(=O)c1cccc(O)c1C3=O", "note": "(centres unmarked) [DTR-GR, ditrisarubicin GR]", "values": [{"measurement": "IC50", "setting": "[1]", "result": 4.2, "unit": "ng/mL"}]}, {"smiles": "CCC1(O)CC(OC2CC(N(C)C)C(OC3CC4OC5CC(=O)C(C)OC5OC4C(C)O3)C(C)O2)c2c(O)c3c(c(O)c2C1OC1CC(N(C)C)C(OC2CC(O)C(OC4CCC(O)C(C)O4)C(C)O2)C(C)O1)C(=O)c1cccc(O)c1C3=O", "note": "(centres unmarked) [DTR-G, ditrisarubicin G]", "values": [{"measurement": "IC50", "setting": "[1]", "result": 4.5, "unit": "ng/mL"}, {"measurement": "Percent survival (%)", "setting": "[2]; Dose 0.0078 mg/kg/day", "result": 109, "unit": "%"}, {"measurement": "Percent survival (%)", "setting": "[2]; Dose 0.0156 mg/kg/day", "result": 111, "unit": "%"}, {"measurement": "Percent survival (%)", "setting": "[2]; Dose 0.0313 mg/kg/day", "result": 117, "unit": "%"}, {"measurement": "Percent survival (%)", "setting": "[2]; Dose 0.0625 mg/kg/day", "result": 163, "unit": "%"}, {"measurement": "Percent survival (%)", "setting": "[2]; Dose 0.125 mg/kg/day", "result": 138, "unit": "%"}, {"measurement": "Toxicity remark in the percent survival cell", "setting": "[2]; Dose 0.25 mg/kg/day", "result": "Toxin"}, {"measurement": "Percent survival (%)", "setting": "[2]; Dose 0.25 mg/kg/day", "result": 125, "unit": "%"}]}, {"smiles": "CCC1(O)CC(OC2CC(N(C)C)C(OC3CCC(OC4C=CC(=O)C(C)O4)C(C)O3)C(C)O2)c2c(O)c3c(c(O)c2C1OC1CC(N(C)C)C(OC2CC4OC5CC(=O)C(C)OC5OC4C(C)O2)C(C)O1)C(=O)c1cccc(O)c1C3=O", "note": "(centres unmarked) [DTR-CR, ditrisarubicin CR]", "values": [{"measurement": "IC50", "setting": "[1]", "result": 4, "unit": "ng/mL"}]}, {"smiles": "CCC1(O)CC(OC2CC(N(C)C)C(OC3CC4OC5CC(=O)C(C)OC5OC4C(C)O3)C(C)O2)c2c(O)c3c(c(O)c2C1OC1CC(N(C)C)C(OC2CCC(OC4CCC(=O)C(C)O4)C(C)O2)C(C)O1)C(=O)c1cccc(O)c1C3=O", "note": "(centres unmarked) [DTR-D, ditrisarubicin D]", "values": [{"measurement": "IC50", "setting": "[1]", "result": 4, "unit": "ng/mL"}, {"measurement": "Percent survival (%)", "setting": "[2]; Dose 0.0078 mg/kg/day", "result": 97, "unit": "%"}, {"measurement": "Percent survival (%)", "setting": "[2]; Dose 0.0156 mg/kg/day", "result": 102, "unit": "%"}, {"measurement": "Percent survival (%)", "setting": "[2]; Dose 0.0313 mg/kg/day", "result": 125, "unit": "%"}, {"measurement": "Percent survival (%)", "setting": "[2]; Dose 0.0625 mg/kg/day", "result": 142, "unit": "%"}, {"measurement": "Percent survival (%)", "setting": "[2]; Dose 0.125 mg/kg/day", "result": 114, "unit": "%"}, {"measurement": "Percent survival (%)", "setting": "[2]; Dose 0.25 mg/kg/day", "result": 131, "unit": "%"}]}, {"smiles": "CCC1(O)CC(OC2CC(N(C)C)C(O)C(C)O2)c2c(O)c3c(c(O)c2C1OC1CC(N(C)C)C(OC2CC4OC5CC(=O)C(C)OC5OC4C(C)O2)C(C)O1)C(=O)c1cccc(O)c1C3=O", "note": "(centres unmarked) [DTR-B/7de-dF-CB, ditrisarubicin B/7 de-dF-CB]", "values": [{"measurement": "IC50", "setting": "[1]", "result": 21, "unit": "ng/mL"}]}, {"smiles": "CCC1(O)CC(OC2CC(N(C)C)C(OC3CC(O)C(O)C(C)O3)C(C)O2)c2c(O)c3c(c(O)c2C1OC1CC(N(C)C)C(OC2CC4OC5CC(=O)C(C)OC5OC4C(C)O2)C(C)O1)C(=O)c1cccc(O)c1C3=O", "note": "(centres unmarked) [DTR-GR/de-Ro]", "values": [{"measurement": "IC50", "setting": "[1]", "result": 20, "unit": "ng/mL"}]}, {"smiles": "CCC1(O)CC(OC2CC(N(C)C)C(OC3CC4OC5CC(=O)C(C)OC5OC4C(C)O3)C(C)O2)c2c(O)c3c(c(O)c2C1OC1CC(N(C)C)C(OC2CCC(OC4CCC(O)C(C)O4)C(C)O2)C(C)O1)C(=O)c1cccc(O)c1C3=O", "note": "(centres unmarked) [DTR-F, ditrisarubicin F]", "values": [{"measurement": "IC50", "setting": "[1]", "result": 3.8, "unit": "ng/mL"}, {"measurement": "Percent survival (%)", "setting": "[2]; Dose 0.0078 mg/kg/day", "result": 101, "unit": "%"}, {"measurement": "Percent survival (%)", "setting": "[2]; Dose 0.0156 mg/kg/day", "result": 120, "unit": "%"}, {"measurement": "Percent survival (%)", "setting": "[2]; Dose 0.0313 mg/kg/day", "result": 127, "unit": "%"}, {"measurement": "Percent survival (%)", "setting": "[2]; Dose 0.0625 mg/kg/day", "result": 133, "unit": "%"}, {"measurement": "Percent survival (%)", "setting": "[2]; Dose 0.125 mg/kg/day", "result": 152, "unit": "%"}, {"measurement": "Toxicity remark in the percent survival cell", "setting": "[2]; Dose 0.25 mg/kg/day", "result": "Toxin"}, {"measurement": "Percent survival (%)", "setting": "[2]; Dose 0.25 mg/kg/day", "result": 133, "unit": "%"}]}, {"smiles": "CCC1(O)CC(OC2CC(N(C)C)C(OC3CC(O)C(OC4CCC(=O)C(C)O4)C(C)O3)C(C)O2)c2c(O)c3c(c(O)c2C1OC1CC(N(C)C)C(OC2CC(O)C(OC4CCC(=O)C(C)O4)C(C)O2)C(C)O1)C(=O)c1cccc(O)c1C3=O", "note": "(centres unmarked) [DTR-E, ditrisarubicin E]", "values": [{"measurement": "IC50", "setting": "[1]; [3]", "result": 7, "unit": "ng/mL"}, {"measurement": "Percent survival (%)", "setting": "[2]; Dose 0.0078 mg/kg/day", "result": 102, "unit": "%"}, {"measurement": "Percent survival (%)", "setting": "[2]; Dose 0.0156 mg/kg/day", "result": 102, "unit": "%"}, {"measurement": "Percent survival (%)", "setting": "[2]; Dose 0.0313 mg/kg/day", "result": 119, "unit": "%"}, {"measurement": "Percent survival (%)", "setting": "[2]; Dose 0.0625 mg/kg/day", "result": 163, "unit": "%"}, {"measurement": "Percent survival (%)", "setting": "[2]; Dose 0.125 mg/kg/day", "result": 156, "unit": "%"}, {"measurement": "Percent survival (%)", "setting": "[2]; Dose 0.25 mg/kg/day", "result": 106, "unit": "%"}]}, {"smiles": "CCC1(O)CC(OC2CC(N(C)C)C(OC3CC4OC5CC(=O)C(C)OC5OC4C(C)O3)C(C)O2)c2c(O)c3c(c(O)c2C1OC1CC(N(C)C)C(OC2CC(O)C(O)C(C)O2)C(C)O1)C(=O)c1cccc(O)c1C3=O", "note": "(centres unmarked) [DTR-G/de-Ro]", "values": [{"measurement": "IC50", "setting": "[1]", "result": 12, "unit": "ng/mL"}]}, {"smiles": "CCC1(O)CC(OC2CC(N(C)C)C(OC3CC4OC5CC(=O)C(C)OC5OC4C(C)O3)C(C)O2)c2cc3c(c(O)c2C1OC1CC(N(C)C)C(OC2CC4OC5CC(=O)C(C)OC5OC4C(C)O2)C(C)O1)C(=O)c1c(O)ccc(O)c1C3=O", "note": "(centres unmarked) [Compound 1-HSR, 1-hydroxyserirubicin]", "values": [{"measurement": "IC50", "setting": "[1]", "result": 12, "unit": "ng/mL"}, {"measurement": "Percent survival (%)", "setting": "[2]; Dose 0.0313 mg/kg/day", "result": 108, "unit": "%"}, {"measurement": "Percent survival (%)", "setting": "[2]; Dose 0.0625 mg/kg/day", "result": 127, "unit": "%"}, {"measurement": "Percent survival (%)", "setting": "[2]; Dose 0.125 mg/kg/day", "result": 151, "unit": "%"}, {"measurement": "Percent survival (%)", "setting": "[2]; Dose 0.25 mg/kg/day", "result": 145, "unit": "%"}, {"measurement": "Percent survival (%)", "setting": "[2]; Dose 0.5 mg/kg/day", "result": 139, "unit": "%"}, {"measurement": "Toxicity remark in the percent survival cell", "setting": "[2]; Dose 1 mg/kg/day", "result": "Toxin"}, {"measurement": "Percent survival (%)", "setting": "[2]; Dose 1 mg/kg/day", "result": 114, "unit": "%"}]}]}
